Data from the SangsterLogP compilation.

Experiment: method code SF-HPLC, from DOI: 10.1021/jm00151a006, PMID: 3510299

Row | SMILES | logP
1 | CN(Cc1ccc(C#N)cc1)N=O | 0.99
2 | Cc1cccc(CN(C)N=O)c1 | 1.96
3 | Cc1ccc(CN(C)N=O)cc1 | 2.14
4 | CN(Cc1ccc(F)cc1)N=O | 1.67
5 | CN(Cc1ccc([N+](=O)[O-])cc1)N=O | 0.82
6 | CN(Cc1ccccc1)N=O | 1.55
7 | COc1cccc(CN(C)N=O)c1 | 1.6
8 | CN(Cc1ccc(Cl)cc1)N=O | 2.19
9 | COc1ccc(CN(C)N=O)cc1 | 1.62
10 | CN(Cc1cccc(Cl)c1)N=O | 1.46
11 | CN(Cc1cccc(C(F)(F)F)c1)N=O | 1.99
12 | CN(Cc1cccc([N+](=O)[O-])c1)N=O | 1.17
